Source: article PMC7567334 (Environmental Health Perspectives, 2020)
Several values for one entry are separate records, joined by “and”; a condition that tells them apart may be missing. Identical values can stand only once. Like-named read-outs stand apart in the source and are kept apart here.

Key:
[1] = system: AroB transcription; settings: 1 nM E2 alone; zebrafish embryos; ref Chung et al. 2011; cited from earlier work
[2] = system: TRα and TRβ; assay: GH3.TRE-Luc TR reporter assay, antagonist setup (0.25 nM T3); format: cell-based, rat
[3] = molecular target: T1, firefly luciferase (Photinus pyralis, UniProt P08659); assay: Luciferase inhibition assay in GH3.TRE-Luc cell lysates; format: biochemical; settings: cell lysate; for inhibition at 50 µM: read-out: inhibition of firefly luciferase luminescence signal
T1 construct: Only implied by 'CP' in the vector name, from my own knowledge; expressed in transfected cells; host or cells: GH3.TRE-Luc cells induced with 0.25 nM T3, lysate
Protocol: Serial dilutions for each treatment were prepared in the cell lysate and incubated at room temperature for 30 min.

[4] = system: AR-EcoScreen cells; assay: Cell viability (resazurin) in AR-EcoScreen cells; settings: agonist assay
[5] = system: TRα and TRβ; assay: GH3.TRE-Luc TR reporter assay, agonist setup; format: cell-based, rat; settings: vs 0.1% DMSO
[6] = system: Glucocorticoid receptor; settings: MDA-kb2 at 5 μM; ref Kolšek et al. 2014a; cited from earlier work
[7] = system: Thyroid receptor; settings: ZFL cell line; ref Zhou et al. 2017; cited from earlier work
[8] = molecular target: T2, GR (Homo sapiens, UniProt P04150); assay: MDA-kb2 GR reporter assay, agonist setup (with FLU); format: cell-based; design: constitutively expressed high levels of functional GR and AR; host or cells: MDA-kb2; settings: 10 μM; vs 0.1% DMSO with 5 μM FLU
T2 sequence (P04150 1-777): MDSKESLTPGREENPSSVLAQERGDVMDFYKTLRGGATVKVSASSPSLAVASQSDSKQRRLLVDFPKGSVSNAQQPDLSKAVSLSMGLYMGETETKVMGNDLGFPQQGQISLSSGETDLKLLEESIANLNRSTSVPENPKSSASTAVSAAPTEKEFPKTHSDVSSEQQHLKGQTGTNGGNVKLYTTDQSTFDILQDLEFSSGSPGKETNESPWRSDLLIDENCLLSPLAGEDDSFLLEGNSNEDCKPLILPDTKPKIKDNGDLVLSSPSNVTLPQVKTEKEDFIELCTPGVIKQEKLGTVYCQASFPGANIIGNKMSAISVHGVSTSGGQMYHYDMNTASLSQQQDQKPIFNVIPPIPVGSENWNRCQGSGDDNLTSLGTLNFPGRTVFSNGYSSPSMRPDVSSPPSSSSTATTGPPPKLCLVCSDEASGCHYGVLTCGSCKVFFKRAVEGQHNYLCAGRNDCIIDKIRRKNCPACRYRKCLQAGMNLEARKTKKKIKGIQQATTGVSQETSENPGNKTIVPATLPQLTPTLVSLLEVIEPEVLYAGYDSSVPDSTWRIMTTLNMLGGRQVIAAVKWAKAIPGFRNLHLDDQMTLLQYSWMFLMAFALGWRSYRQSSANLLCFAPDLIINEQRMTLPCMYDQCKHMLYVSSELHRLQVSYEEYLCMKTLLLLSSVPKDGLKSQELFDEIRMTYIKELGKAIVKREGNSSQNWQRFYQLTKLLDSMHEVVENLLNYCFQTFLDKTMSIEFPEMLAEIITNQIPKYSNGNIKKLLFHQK

[9] = molecular target: T2, GR; assay: PolarScreen GR Competitor binding affinity assay; design: purchased Invitrogen; settings: for binding affinity assay on isolated GR, result: in words, tested up to 10 μM
[10] = ref Sandborgh-Englund et al. 2006, cited from earlier work
[11] = molecular target: T2, GR; assay: MDA-kb2 GR reporter assay, antagonist setup (500 nM HC); format: cell-based; design: constitutively expressed high levels of functional GR and AR; host or cells: MDA-kb2
[12] = system: stickleback AR; design: method as in Lange et al. 2015; settings: at 10 μM; ref Lange et al. 2015; cited from earlier work
[13] = molecular target: T3, human (h) ERα (Homo sapiens, UniProt P03372); assay: hERα-HeLa-9903 transactivation assay, agonist setup; format: cell-based; design: host or cells: hERα-HeLa-9903 (HeLa derived); settings: for higher ERα RTA than vehicle control: vs 0.1% DMSO
T3 sequence (P03372 1-595): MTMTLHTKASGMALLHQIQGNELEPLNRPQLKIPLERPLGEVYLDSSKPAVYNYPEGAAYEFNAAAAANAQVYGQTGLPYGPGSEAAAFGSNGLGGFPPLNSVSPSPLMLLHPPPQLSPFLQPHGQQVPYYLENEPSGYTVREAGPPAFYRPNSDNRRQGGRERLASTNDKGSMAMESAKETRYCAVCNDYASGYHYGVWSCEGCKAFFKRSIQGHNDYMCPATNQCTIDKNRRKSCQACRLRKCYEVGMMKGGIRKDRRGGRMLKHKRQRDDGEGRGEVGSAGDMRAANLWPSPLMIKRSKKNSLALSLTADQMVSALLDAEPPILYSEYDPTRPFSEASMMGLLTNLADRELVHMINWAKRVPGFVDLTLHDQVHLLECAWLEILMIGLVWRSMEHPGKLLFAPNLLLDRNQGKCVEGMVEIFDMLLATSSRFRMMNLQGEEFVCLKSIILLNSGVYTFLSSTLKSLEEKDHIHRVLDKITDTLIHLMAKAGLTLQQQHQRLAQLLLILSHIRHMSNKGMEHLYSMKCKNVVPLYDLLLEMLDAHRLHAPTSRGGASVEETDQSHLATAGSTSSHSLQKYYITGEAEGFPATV

[14] = system: Estrogen receptor-α; settings: YES/YAS tests; ref Westlund and Yargeau 2017; cited from earlier work
[15] = system: hERα-HeLa-9903 cells; assay: Cell viability (resazurin) in hERα-HeLa-9903 cells; settings: hERα-HeLa-9903, ERα agonist dose-response
[16] = molecular target: T4, human (h)AR (Homo sapiens, UniProt P10275); assay: AR-EcoScreen hAR transcriptional activation assay, antagonist setup (500 pM DHT); format: cell-based
T4 sequence (P10275 1-920): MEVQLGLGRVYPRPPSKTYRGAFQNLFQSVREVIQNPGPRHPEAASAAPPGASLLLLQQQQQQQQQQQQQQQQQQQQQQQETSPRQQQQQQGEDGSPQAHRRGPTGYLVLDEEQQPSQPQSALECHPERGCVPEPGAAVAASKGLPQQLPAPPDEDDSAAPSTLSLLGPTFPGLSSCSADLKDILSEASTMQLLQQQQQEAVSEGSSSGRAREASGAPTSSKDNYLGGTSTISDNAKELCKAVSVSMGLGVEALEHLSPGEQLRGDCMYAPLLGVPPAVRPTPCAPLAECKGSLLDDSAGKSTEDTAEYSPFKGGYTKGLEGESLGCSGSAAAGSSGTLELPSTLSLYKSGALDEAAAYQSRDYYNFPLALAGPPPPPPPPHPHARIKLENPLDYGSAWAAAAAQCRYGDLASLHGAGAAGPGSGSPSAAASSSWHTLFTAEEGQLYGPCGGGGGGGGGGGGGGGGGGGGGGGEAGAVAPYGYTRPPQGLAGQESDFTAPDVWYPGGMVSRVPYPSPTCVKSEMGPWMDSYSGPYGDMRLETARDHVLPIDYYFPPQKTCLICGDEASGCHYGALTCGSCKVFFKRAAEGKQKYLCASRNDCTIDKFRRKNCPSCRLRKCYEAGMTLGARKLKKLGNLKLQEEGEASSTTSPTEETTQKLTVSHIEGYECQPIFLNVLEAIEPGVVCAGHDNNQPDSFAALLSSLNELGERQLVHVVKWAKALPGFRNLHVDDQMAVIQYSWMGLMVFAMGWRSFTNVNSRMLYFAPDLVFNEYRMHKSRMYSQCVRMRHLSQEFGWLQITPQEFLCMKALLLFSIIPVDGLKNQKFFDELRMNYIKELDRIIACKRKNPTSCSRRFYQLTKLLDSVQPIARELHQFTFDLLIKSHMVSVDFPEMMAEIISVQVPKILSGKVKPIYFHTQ

[17] = molecular target: Androgen receptor; settings: ref Rostkowski et al. 2011, cited from earlier work
[18] = molecular target: Androgen receptor; settings: ref Rostkowski et al. 2011, cited from earlier work; remark: listed apart in the source
[19] = molecular target: T5, AR (Rattus norvegicus, UniProt P15207); assay: PolarScreen AR Competitor binding affinity assay
T5 construct: purchased Invitrogen
T5 sequence (P15207 651-902 limits assumed): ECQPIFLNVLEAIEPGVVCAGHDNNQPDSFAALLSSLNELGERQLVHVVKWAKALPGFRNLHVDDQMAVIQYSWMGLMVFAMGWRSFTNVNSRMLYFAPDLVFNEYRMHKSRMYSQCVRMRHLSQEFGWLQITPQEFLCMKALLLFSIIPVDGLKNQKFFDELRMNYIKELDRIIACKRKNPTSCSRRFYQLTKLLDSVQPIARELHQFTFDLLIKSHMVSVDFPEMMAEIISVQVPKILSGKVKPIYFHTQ

[20] = 0.25 nM T3; read-out: TR antagonist IC50

T1 sequence (P08659 whole entry): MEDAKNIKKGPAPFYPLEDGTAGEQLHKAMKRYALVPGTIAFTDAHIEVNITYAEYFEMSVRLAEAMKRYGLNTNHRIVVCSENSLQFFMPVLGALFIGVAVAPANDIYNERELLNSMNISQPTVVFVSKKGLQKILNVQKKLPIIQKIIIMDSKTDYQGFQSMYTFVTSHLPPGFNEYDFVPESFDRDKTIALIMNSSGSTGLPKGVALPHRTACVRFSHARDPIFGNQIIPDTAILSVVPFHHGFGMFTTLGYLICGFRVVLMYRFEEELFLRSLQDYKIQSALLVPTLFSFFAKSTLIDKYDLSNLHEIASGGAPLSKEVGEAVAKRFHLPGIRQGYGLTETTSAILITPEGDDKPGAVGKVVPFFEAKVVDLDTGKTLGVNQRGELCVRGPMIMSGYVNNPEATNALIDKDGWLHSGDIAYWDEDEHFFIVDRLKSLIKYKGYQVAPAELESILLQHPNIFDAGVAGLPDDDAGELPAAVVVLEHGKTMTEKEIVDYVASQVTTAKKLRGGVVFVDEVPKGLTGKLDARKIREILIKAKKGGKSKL

In the case of C[C@]12CC[C@@H]3c4ccc(O)cc4CC[C@H]3[C@@H]1CC[C@@H]2O [E2, 17β-estradiol, reference compound], the “increase in AroB transcription” value [1] is given as 8 fold.
For Oc1c(Br)cc(Cl)cc1Cc1cc(Cl)cc(Br)c1O [Bromochlorophene, 2,2’-methylenebis(6-bromo-4-chlorophenol)], the IC50 [2, 20] was 0.5 µM and 0.51 µM, the “lower TR RTA than spike-in control” value ([2]; 10 μM; vs 0.1% DMSO with 0.25 nM T3) was 92.9% and the “TR antagonist activity, call” value ([2]; GH3.TRE-Luc) was “Antagonist”. For the same compound, the “inhibition of firefly luciferase luminescence signal” value ([3]; 50 μM) was 26.1%, the highest noncytotoxic concentration [4] was 2.5 µM and the “baseline TR-mediated transcriptional activity lower than vehicle control (agonist setup)” value ([5]; 1 μM) was over 50%. For the same compound, the “baseline TR-mediated transcriptional activity lower than vehicle control (agonist setup)” value ([5]; 10 μM) was over 50%.
In the case of Oc1cc(Cl)ccc1Oc1ccc(Cl)cc1Cl [Triclosan, 5-Chloro-2-(2,4-dichlorophenoxy) phenol], the “effect on GR” value [6] is listed as “No effect in MDA-kb2 at 5μM ([Kolšek et al. 2014a])”, the “effect on TR” value [7] is listed as “No effect in ZFL cell line ([Zhou et al. 2017])” and the IC50 [2, 20] is listed as 3.6 µM and 3.61 µM. For the same compound, the “lower TR RTA than spike-in control” value ([2]; 5 μM; vs 0.1% DMSO with 0.25 nM T3) was 71.9%, the “TR antagonist activity, call” value ([2]; GH3.TRE-Luc) was “Antagonist” and the “concentration with TR antagonist activity” value ([2]; GH3.TRE-Luc) was 5 µM. For the same compound, the inhibition at 50 µM [3] was about 12%, the “lower GR RTA than vehicle control (agonist assay)” value [8] was 53.6% and the EC50 [9] was 27.3 µM. The “binding affinity assay on isolated GR, result” value [9] was “positive”, the peak plasma concentration ([10]; 10 healthy volunteers, single dose of mouthwash) was 0.5 to 1.2 µM and the “preexperiment median plasma baseline concentration” value ([10]; 10 healthy volunteers) was 5.5 nM. The “time of plasma peak after exposure” value [10] was “up to 3 h”, the “lower GR RTA than spike-in control” value ([11]; 10 μM, vs 0.1% DMSO with 500 nM HC) was 53.2% and the “GR antagonist activity, call” value ([11]; MDA-kb2) was “Antagonist”. For the same compound, the “effect on stickleback AR” value [12] was “Antagonist at 10μM in stickleback AR reporter assay ([Lange et al. 2015])” and the “baseline TR-mediated transcriptional activity lower than vehicle control (agonist setup)” value ([5]; 10 μM) was over 50%.
Work on CC(C)(c1ccc(O)cc1)c1ccc(O)cc1 [BPA, bisphenol A, reference compound] yielded an IC50 ([2]; read-out: TR antagonist IC50; 0.25 nM T3) of 41.9 µM.
In the case of CC(C)(C)C(=O)C(Oc1ccc(Cl)cc1)n1ccnc1 (stereo not drawn) [Climbazole, 1-(4-Chlorophenoxy)-1-(imidazol-1-yl)-3,3-dimethylbutan-2-one], the “higher ERα RTA than vehicle control” value ([13]; 10 μM) is reported as > 30.0% and 36.6%, the “higher ERα RTA than vehicle control” value ([13]; 100 μM) is reported as 94% and the “ERα agonist activity, call” value ([13]; hERα-HeLa-9903) is reported as “Agonist”. For the same compound, the “concentration with ERα agonist activity” value ([13]; hERα-HeLa-9903) was 10 to 100 µM, the “TR antagonist activity, call” value ([2]; GH3.TRE-Luc) was “Antagonist” and the “concentration with TR antagonist activity” value ([2]; GH3.TRE-Luc) was 10 µM. For the same compound, the inhibition at 50 µM [3] was about 12% and the “effect on ER, yeast based assay” value [14] was “No effect ([Westlund and Yargeau 2017])”.
With Oc1ccc(Cl)cc1Cc1ccccc1 [Chlorophene, 2-Benzyl-4-chlorophenol] the “highest tested concentration as limited by precipitation and cytotoxicity” value [15] was 50 µM, the “lower AR RTA than spike-in control” value ([16]; 10 μM, vs 0.1% DMSO with 500 pM DHT) was over 90% and the IC50 ([16]; AR antagonist IC50, AR-EcoScreen, 500 pM DHT) was 2360 nM and 2400 nM. For the same compound, the “AR antagonist activity, call” value ([16]; AR-EcoScreen) was “Antagonist”, the IC50 ([17]; antiandrogenic, read-out: AR-CALUX IC50) was 800 nM and the “effect on AR in AR-CALUX assay” value [17] was “Antagonist in AR-CALUX assay ([Rostkowski et al. 2011])”. For the same compound, the IC50 ([18]; antiandrogenic, read-out: anti-YAS IC50) was 540 nM, the “effect on AR, yeast based assay” value [18] was “Antagonist ([Rostkowski et al. 2011])” and the EC50 [19] was 2160 nM. The “binding affinity assay on isolated AR, result” value ([19]; in words, tested up to 10 μM) was “positive”, the “TR antagonist activity, call” value ([2]; GH3.TRE-Luc) was “Antagonist” and the “concentration with TR antagonist activity” value ([2]; GH3.TRE-Luc) was 10 µM. For the same compound, the inhibition at 50 µM [3] was about 12%, the “binding affinity assay on isolated GR, result” value [9] was “positive” and the EC50 ([9]; read-out: binding to isolated GR, EC50) was 10.5 µM. For the same compound, the “GR activity in MDA-kb2 cell line, call” value ([11]; 10 μM) was “Negative” and the “effect on stickleback AR” value [12] was “Antagonist at 10μM in a stickleback AR reporter assay ([Lange et al. 2015])”.
